Test results as given in PubChem BioAssay AID2060892 (Molecular Pharmacology Branch, DTP, NCI, 2025).

System: HOP-62 complex spheroids with HUVEC/MSC, viability
Assay: Anticancer human tumor HOP-62 cell line growth inhibition [RAS];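 also: spheroids exposed to agents for seven days before readout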;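 as to viability, T/C: 100% = DMSO vehicle control viability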
Settings: for viability, T/C: stronger effect = lower value; active = viability on the fitted dose curve at most 10% of control; inactive = the rest
Procedure, shortened: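 Tumour cells grown as complex spheroids with HUVEC endothelial cells and mesenchymal stem cells, treated with RAS pathway inhibitor combinations. Each agent spans half-log steps from near clinical Cmax, or 10 microM where Cmax is unknown.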

CC1(O)CCCC1n1c(=O)c(C(F)F)cc2cnc(NC3CCN(S(C)(=O)=O)CC3)nc21 (centres undefined) + C#Cc1c(F)ccc2cc(O)cc(-c3ncc4c(N5CC6CCC(C5)N6)nc(OCC56CCCN5CC(F)C6)nc4c3F)c12
inactive: viability, T/C (second compound 0.0316 µM, first compound 0.0316 µM) 87.9% | viability, T/C (second compound 0.0316 µM, first compound 0.1 µM) 53.1% | viability, T/C (second compound 0.0316 µM, first compound 0.316 µM) 43.3% | viability, T/C (second compound 0.0316 µM, first compound 1 µM) 40.5% | viability, T/C (second compound 0.0316 µM, first compound 3.16 µM) 47.8% | viability, T/C (second compound 0.0316 µM, first compound 10 µM) 0.9% | viability, T/C (second compound 0.1 µM, first compound 0.0316 µM) 91.3% | viability, T/C (second compound 0.1 µM, first compound 0.1 µM) 52.2% | viability, T/C (second compound 0.1 µM, first compound 0.316 µM) 45.3% | viability, T/C (second compound 0.1 µM, first compound 1 µM) 48.8% | viability, T/C (second compound 0.1 µM, first compound 3.16 µM) 35.7% | viability, T/C (second compound 0.1 µM, first compound 10 µM) 1.45% | viability, T/C (second compound 0.316 µM, first compound 0.0316 µM) 91.4% | viability, T/C (second compound 0.316 µM, first compound 0.1 µM) 50.7% | viability, T/C (second compound 0.316 µM, first compound 0.316 µM) 38% | viability, T/C (second compound 0.316 µM, first compound 1 µM) 42% | viability, T/C (second compound 0.316 µM, first compound 3.16 µM) 42.2% | viability, T/C (second compound 0.316 µM, first compound 10 µM) 1.44% | viability, T/C (second compound 1 µM, first compound 0.0316 µM) 84.7% | viability, T/C (second compound 1 µM, first compound 0.1 µM) 53.6% | viability, T/C (second compound 1 µM, first compound 0.316 µM) 37.2% | viability, T/C (second compound 1 µM, first compound 1 µM) 45.2% | viability, T/C (second compound 1 µM, first compound 3.16 µM) 40% | viability, T/C (second compound 1 µM, first compound 10 µM) 3.73% | viability, T/C (second compound 3.16 µM, first compound 0.0316 µM) 66.6% | viability, T/C (second compound 3.16 µM, first compound 0.1 µM) 47.9% | viability, T/C (second compound 3.16 µM, first compound 0.316 µM) 34% | viability, T/C (second compound 3.16 µM, first compound 1 µM) 41.4% | viability, T/C (second compound 3.16 µM, first compound 3.16 µM) 27.6% | viability, T/C (second compound 10 µM, first compound 0.0316 µM) 42% | viability, T/C (second compound 10 µM, first compound 0.1 µM) 37.3% | viability, T/C (second compound 10 µM, first compound 0.316 µM) 27.8% | viability, T/C (second compound 10 µM, first compound 1 µM) 29.4% | viability, T/C (second compound 10 µM, first compound 3.16 µM) 32.5% | viability, T/C (second compound 10 µM, first compound 10 µM) 1.15%
343 nM: IC50 (curve of first compound, second compound 0.316 µM)
active: viability, T/C (second compound 3.16 µM, first compound 10 µM) 1.45%
383 nM: IC50 (curve of first compound, second compound 0.0316 µM)
324 nM: IC50 (curve of first compound, second compound 1 µM)
146 nM: IC50 (curve of first compound, second compound 3.16 µM)
< 31.6 nM: IC50 (curve of first compound, second compound 10 µM)
398 nM: IC50 (curve of first compound, second compound 0.1 µM)

C=CC(=O)N1CCN(c2nc(OCC3CCCN3C)nc3c(F)c(-c4nc(N)cc(C)c4C(F)(F)F)c(Cl)cc23)C(C)C1 (centres undefined) + CCn1c(-c2cccnc2C(C)OC)c2c3cc(ccc31)N1CCOC(CC(NC(=O)C(C(C)C)N(C)C(=O)C3(F)CCN(C(=O)C#CC(C)(C)N(C)C)CC3)C(=O)N3CCCC(N3)C(=O)OCC(C)(C)C2)C1
> 1000 nM: IC50 (curve of first compound, second compound 0.000949 µM) | IC50 (curve of first compound, second compound 0.003 µM) | IC50 (curve of first compound, second compound 0.00949 µM) | IC50 (curve of first compound, second compound 0.03 µM) | IC50 (curve of first compound, second compound 0.0949 µM) | IC50 (curve of first compound, second compound 0.3 µM)
inactive: viability, T/C (second compound 0.000949 µM, first compound 0.00316 µM) 103% | viability, T/C (second compound 0.000949 µM, first compound 0.01 µM) 101% | viability, T/C (second compound 0.000949 µM, first compound 0.0316 µM) 69.5% | viability, T/C (second compound 0.000949 µM, first compound 0.1 µM) 88.2% | viability, T/C (second compound 0.000949 µM, first compound 0.316 µM) 95.6% | viability, T/C (second compound 0.000949 µM, first compound 1 µM) 71.1% | viability, T/C (second compound 0.003 µM, first compound 0.00316 µM) 88.7% | viability, T/C (second compound 0.003 µM, first compound 0.01 µM) 87.3% | viability, T/C (second compound 0.003 µM, first compound 0.0316 µM) 76.8% | viability, T/C (second compound 0.003 µM, first compound 0.1 µM) 92.5% | viability, T/C (second compound 0.003 µM, first compound 0.316 µM) 84.9% | viability, T/C (second compound 0.003 µM, first compound 1 µM) 72.9% | viability, T/C (second compound 0.00949 µM, first compound 0.00316 µM) 90.4% | viability, T/C (second compound 0.00949 µM, first compound 0.01 µM) 87.6% | viability, T/C (second compound 0.00949 µM, first compound 0.0316 µM) 85.3% | viability, T/C (second compound 0.00949 µM, first compound 0.1 µM) 89.8% | viability, T/C (second compound 0.00949 µM, first compound 0.316 µM) 91% | viability, T/C (second compound 0.00949 µM, first compound 1 µM) 74.7% | viability, T/C (second compound 0.03 µM, first compound 0.00316 µM) 91.3% | viability, T/C (second compound 0.03 µM, first compound 0.01 µM) 92% | viability, T/C (second compound 0.03 µM, first compound 0.0316 µM) 87.7% | viability, T/C (second compound 0.03 µM, first compound 0.1 µM) 94.9% | viability, T/C (second compound 0.03 µM, first compound 0.316 µM) 79.1% | viability, T/C (second compound 0.03 µM, first compound 1 µM) 84.3% | viability, T/C (second compound 0.0949 µM, first compound 0.00316 µM) 86.5% | viability, T/C (second compound 0.0949 µM, first compound 0.01 µM) 91.2% | viability, T/C (second compound 0.0949 µM, first compound 0.0316 µM) 83.3% | viability, T/C (second compound 0.0949 µM, first compound 0.1 µM) 92.7% | viability, T/C (second compound 0.0949 µM, first compound 0.316 µM) 71.8% | viability, T/C (second compound 0.0949 µM, first compound 1 µM) 87.6% | viability, T/C (second compound 0.3 µM, first compound 0.00316 µM) 95.4% | viability, T/C (second compound 0.3 µM, first compound 0.01 µM) 75.1% | viability, T/C (second compound 0.3 µM, first compound 0.0316 µM) 73% | viability, T/C (second compound 0.3 µM, first compound 0.1 µM) 70.2% | viability, T/C (second compound 0.3 µM, first compound 0.316 µM) 74.6% | viability, T/C (second compound 0.3 µM, first compound 1 µM) 79.4%

C=CC(=O)N1CCN(c2nc(OCC3CCCN3C)nc3c(F)c(-c4nc(N)cc(C)c4C(F)(F)F)c(Cl)cc23)C(C)C1 (centres undefined)
inactive: viability, T/C (compound 0.01 µM, compound 0.0316 µM) 66.5% | viability, T/C (compound 0.01 µM, compound 0.1 µM) 64.5% | viability, T/C (compound 0.01 µM, compound 0.316 µM) 71% | viability, T/C (compound 0.01 µM, compound 1 µM) 61.3% | viability, T/C (compound 0.0316 µM, compound 0.00316 µM) 68.3% | viability, T/C (compound 0.0316 µM, compound 0.01 µM) 62.3% | viability, T/C (compound 0.0316 µM, compound 0.1 µM) 66.5% | viability, T/C (compound 0.0316 µM, compound 0.316 µM) 64% | viability, T/C (compound 0.0316 µM, compound 1 µM) 64.2% | viability, T/C (compound 0.0316 µM) 67.5% | viability, T/C (compound 0.1 µM, compound 0.00316 µM) 59.4% | viability, T/C (compound 0.1 µM, compound 0.01 µM) 63.4% | viability, T/C (compound 0.1 µM, compound 0.0316 µM) 57.5% | viability, T/C (compound 0.1 µM, compound 0.316 µM) 66.9% | viability, T/C (compound 0.1 µM, compound 1 µM) 62.5% | viability, T/C (compound 0.1 µM) 64.9% | viability, T/C (compound 0.316 µM, compound 0.00316 µM) 69.2% | viability, T/C (compound 0.316 µM, compound 0.01 µM) 68% | viability, T/C (compound 0.316 µM, compound 0.0316 µM) 59.4% | viability, T/C (compound 0.316 µM, compound 0.1 µM) 66% | viability, T/C (compound 0.316 µM, compound 1 µM) 68% | viability, T/C (compound 0.316 µM) 66.3% | viability, T/C (compound 1 µM, compound 0.00316 µM) 76.3% | viability, T/C (compound 1 µM, compound 0.01 µM) 65.6% | viability, T/C (compound 1 µM, compound 0.0316 µM) 64% | viability, T/C (compound 1 µM, compound 0.1 µM) 66.4% | viability, T/C (compound 1 µM, compound 0.316 µM) 65% | viability, T/C (compound 1 µM) 67.3% [middle of 13 runs]
> 1000 nM: IC50 (compound alone, run of 07/15/2024) | IC50 (curve of compound)
